By IC50 is commonly meant the midpoint of a concentration-inhibition curve.

Experimental findings from patent US12522579B2, “Monoamine oxidase B imaging probe” (TOHOKU UNIVERSITY, priority 2018, dated 2026) are described below.

Bounds are passed on as bounds.

Data set [1] addresses T1, MAO-B (Homo sapiens (Human), UniProt P27338). The data set can be described thus: Competitive binding test against MAO-B with [3H] THK-5351. The following applies: for IC50: MAO-B membrane fractions, label ligand [3H] THK-5351; for binding to MAO-B (in words): competitive binding test. On the procedure: MAO-B (M7441) was purchased from Sigma Aldrich Co. LLC (St. Louis, MO). The MAO-B membrane fractions (0.5 μg), and 0.1 to 10,000 nM of [3H] […] The reaction solution was transferred to MultiScreen HTS 96-well […] filtration plate (Millipore, Billerica, MA), and a B/F separation was conducted with a MultiScreen HTS Vacuum Manifold, and the mixture was washed with Dulbecco's PBS, and 0.1% BSA three times, and the filter was incubated with 2 mL of Scintillation fluid (Emulssifer-Safe; Perkin Elemer, Boston, MA), and a radio activity was measured with a beta counter (LS6500 liquid scintillation counter, Beckman Counter, Brea, CA). IC50 value was calculated by using Graph Pad Prism Version 7 (GraphPad Software, San Diego, CA).

The target in a further data set is MAO-A (Homo sapiens (Human), UniProt P21397). Kind of data set: Competitive binding test against MAO-A with [18F] Fluoroethyl harmine. Particulars: for IC50: label ligand [18F] Fluoroethyl harmine; for binding against MAO-A (in words): competitive binding test. On the procedure: MAO-A (M7316) was purchased from Sigma Aldrich Co. LLC (St. Louis, MO). The […] (0.5 μg) and 0.1 to 10,000 nM of [^18F] Fluoroethyl harmine (10 μCi/mL, 2 nM) […] were mixed (200 μL), and the mixture was reacted at room temperature for 1 hour. The reaction solution was transfered to MultiScreen HTS 96-well 0.65 μm filtration plate (Millipore, Billerica, MA), and a B/F separation was conducted with MultiScreen HTS Vacuum Manifold, and washed with Dulbecco's PBS and 0.1% BSA three times, and a radioactivity contained in a filter was measured with a gamma counter (AccFLEX γ7000, manufactured from ALOKA Co. Ltd.). The IC50 value was calculated similarly to the case of MAO-B.
Chain of MAO-A (P21397 whole entry): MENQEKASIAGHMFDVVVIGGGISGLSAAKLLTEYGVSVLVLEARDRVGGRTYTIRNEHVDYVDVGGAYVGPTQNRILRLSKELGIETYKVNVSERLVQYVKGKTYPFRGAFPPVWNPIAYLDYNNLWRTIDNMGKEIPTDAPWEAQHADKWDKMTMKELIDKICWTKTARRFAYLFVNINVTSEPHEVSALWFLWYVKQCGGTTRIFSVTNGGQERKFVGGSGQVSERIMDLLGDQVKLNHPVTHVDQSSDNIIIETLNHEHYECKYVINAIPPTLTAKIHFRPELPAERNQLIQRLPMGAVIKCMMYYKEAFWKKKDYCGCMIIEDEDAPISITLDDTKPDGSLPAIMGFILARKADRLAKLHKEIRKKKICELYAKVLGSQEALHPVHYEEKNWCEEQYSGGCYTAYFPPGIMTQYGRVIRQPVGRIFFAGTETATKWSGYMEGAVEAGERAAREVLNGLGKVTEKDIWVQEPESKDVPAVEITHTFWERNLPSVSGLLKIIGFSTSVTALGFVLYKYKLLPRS

Another data set concerns the target tau (Homo sapiens, UniProt P10636). Kind of data set: Competitive binding against tau in Alzheimer's disease brain with [3H] MK-6240. The following applies: for IC50: Alzheimer's disease brain (Braak stage VI), label ligand [3H] MK-6240; for binding to tau (in words): competitive binding test. On the procedure: A binding affinity against tau containined in a AD brain was conducted by using Alzheimer's disease brain (Braak stage VI) and [3H] MK-6240 (manufactured by Metck & Co) as a label ligand. The IC50 value was calculated similarly to the case of MAO-B.

Data set [2] deals with T1, MAO-B. The data set can be described thus: In vitro autoradiography of human necropsy brain sections. It counts as binding. On the procedure:
Each […] slice frozen section of a normal necropsy brain (person) and an Alzheimer's disease necropsy brain (person; neurofibrillary tangles stage was Braak stage VI) was dried at room temperature, and phosphate buffered saline (PBS) was added thereto and the wetting treatment was consucted for 30 minutes. Pre-incubation was conducted for 30 minutes by using PBS containing 1% bovine serum albumin (BSA). A PBS (370 kBq/mL) containing 1% BSA of the ^18F labeled compound were added dropwise to the section, and the reaction was conducted at room temperature for 30 minutes. In order to evaluate a specific binding to MAO-B, a similar reaction to the above reaction was conducted in the presence of MAO-B selective inhibitor (that is, Lazabemide) (10 μM). After that, the section was washed by soaking it in PBS containing 1% BSA for 5 minutes, and further in PBS for 5 minutes twice. After the section was dried at room temperature, an imaging plate (GE healthcare, BAS-MS 2025) was exposed to light, and an image (spartial resolution 25 μm×25 μm) was acquired by a FLA-9500 imaging analyzer plate (GE healthcare). The adjacent sections were subjected to an immunostaining using MAO-B (manufactured from Sigma, Aldrich, Co. LLC), AT8 tau (manufactured from Innogenetics, N.V.), or 6F/3D 6-amyloid (DAKO) antibody, and the resulting stainned distributions were compared with a distribution of a binding to tracer. Similar tests were conducted by using as comparative compound, (S)-[^18F] HK-5174 (WO 2017/103257 A1), and(S)-[^18F] THK-5351, each having the following structural formula respectively.

Data set [3] can be described thus: Dynamic evaluation (body distribution) in normal mouse. In kind it is in vivo. The following applies: bone accumulation, male ICR mouse. On the procedure: Each saline containing [^18F] HK-5470 as the compound of the present invention, (S)-[^18F] HK-5174 as the comparative compound, or [^18F] HK-5351 as the ^18F labeled-compound (740 kBq) was administered intravenously via tail to male ICR mouse (6 weeks old), and after 2 min., 10 min., 30 min., 60 min., and 120 min., cervical dislocation of mouse was performed under ether anesthesia, and each organ tissue including brain was extracted, and a weight and a radioactivity of each organ was measured with Gamma counter (AccuFLEX γ7000, measured by Hitachi-Aloka Medical, Tokyo). The accumulation of radioactivity was evaluated by making the ratio of radioactivity per weight of tissue against total administered radioactivity (% Injected Dose/g of tissue; % ID/g) an index. The evaluation was conducted in a ratio of four per group.

T1 sequence (P27338 whole entry): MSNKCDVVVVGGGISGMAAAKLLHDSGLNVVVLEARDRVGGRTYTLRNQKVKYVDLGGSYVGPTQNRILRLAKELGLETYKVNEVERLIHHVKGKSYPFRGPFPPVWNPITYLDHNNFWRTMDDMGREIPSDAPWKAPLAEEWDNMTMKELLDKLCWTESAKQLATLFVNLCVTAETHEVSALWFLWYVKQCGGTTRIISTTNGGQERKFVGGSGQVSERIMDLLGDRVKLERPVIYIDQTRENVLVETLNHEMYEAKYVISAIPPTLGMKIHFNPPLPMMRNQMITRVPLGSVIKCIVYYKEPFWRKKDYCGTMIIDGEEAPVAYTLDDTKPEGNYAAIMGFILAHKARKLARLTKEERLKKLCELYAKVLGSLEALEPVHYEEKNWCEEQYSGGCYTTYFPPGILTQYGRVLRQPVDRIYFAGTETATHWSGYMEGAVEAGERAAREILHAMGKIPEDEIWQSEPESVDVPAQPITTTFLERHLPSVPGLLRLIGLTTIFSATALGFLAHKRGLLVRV
Chain of tau (P10636 2-758 limits assumed): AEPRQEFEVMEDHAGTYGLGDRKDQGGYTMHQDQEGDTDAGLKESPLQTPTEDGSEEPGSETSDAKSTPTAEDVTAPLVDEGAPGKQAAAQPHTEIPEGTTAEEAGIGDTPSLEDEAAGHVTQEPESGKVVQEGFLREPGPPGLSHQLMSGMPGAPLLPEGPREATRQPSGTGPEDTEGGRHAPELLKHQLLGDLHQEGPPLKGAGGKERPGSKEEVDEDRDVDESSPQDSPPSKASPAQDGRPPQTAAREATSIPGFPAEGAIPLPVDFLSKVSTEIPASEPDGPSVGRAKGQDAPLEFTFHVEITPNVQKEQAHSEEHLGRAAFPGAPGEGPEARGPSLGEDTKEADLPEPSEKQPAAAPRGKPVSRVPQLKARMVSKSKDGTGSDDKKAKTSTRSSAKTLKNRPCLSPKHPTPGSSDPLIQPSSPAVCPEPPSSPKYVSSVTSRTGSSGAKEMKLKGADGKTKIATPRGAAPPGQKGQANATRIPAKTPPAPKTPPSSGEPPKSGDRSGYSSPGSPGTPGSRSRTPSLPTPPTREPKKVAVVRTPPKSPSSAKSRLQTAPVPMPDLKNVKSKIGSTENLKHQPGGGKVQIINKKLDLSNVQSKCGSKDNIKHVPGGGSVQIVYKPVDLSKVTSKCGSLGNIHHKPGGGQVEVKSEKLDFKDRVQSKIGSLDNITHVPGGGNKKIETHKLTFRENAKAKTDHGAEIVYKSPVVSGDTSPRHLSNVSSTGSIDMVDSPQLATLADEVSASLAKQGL

For `CNc1ccc(-c2ccc3cc(OC[C@H](O)CF)ccc3n2)cn1` [THK-5351, reference compound], on MAO-B [1], the half-maximal inhibitory concentration (IC50) came to 0.005 µM and the “binding to MAO-B (in words)” value is listed as “high binding”. This compound also registered an IC50 on MAO-A of more than 10 µM. In addition, on tau, the 50% inhibitory concentration (IC50) is 0.15 µM and the “binding to tau (in words)” value was “mild binding”.

With `Cc1ccc(-c2ccc3cc(OC[C@H](O)CF)ccc3n2)cn1` [THK-5470], the figures for the IC50 on MAO-A and at tau were 0.713 µM and 4.46 µM, respectively.

In the case of `Cc1cc(-c2ccc3cc(OC[C@H](O)CF)ccc3n2)ccn1` [THK-5471], at MAO-B [1], the IC50 is 0.0129 µM and the “binding to MAO-B (in words)” value is “significantly high binding”. Further, at MAO-A, the “binding against MAO-A (in words)” value is given as “low binding” and the IC50 was 1.75 µM. Also, at tau, the IC50 was determined as 0.192 µM and the “binding to tau (in words)” value is “low binding”.

On MAO-B [1], `Cc1ncccc1-c1ccc2cc(OC[C@H](O)CF)ccc2n1` [THK-5472] came in with an IC50 of 0.55 µM. In addition, on MAO-A, the “binding against MAO-A (in words)” value is on record as “low binding” and the IC50 was more than 10 µM. In addition, at tau, the IC50 is more than 10 µM and the “binding to tau (in words)” value is listed as “low binding”.

Consider `Cc1ccncc1-c1ccc2cc(OC[C@H](O)CF)ccc2n1` [THK-5473], for which the IC50 on MAO-B [1] stood at 0.294 µM. For the same compound, at MAO-A, the “binding against MAO-A (in words)” value is on record as “low binding” and the IC50 is more than 10 µM. Further, at tau, the IC50 was more than 10 µM and the “binding to tau (in words)” value is on record as “low binding”.

As to `Cc1cncc(-c2ccc3cc(OC[C@H](O)CF)ccc3n2)c1` [THK-5474], at MAO-B [1], the half-inhibitory concentration (IC50) was found to be 0.0122 µM and the “binding to MAO-B (in words)” value is on record as “significantly high binding”. Besides, on MAO-A, the “binding against MAO-A (in words)” value is listed as “low binding” and the IC50 was more than 10 µM. In addition, on tau, the IC50 is 9.63 µM and the “binding to tau (in words)” value is recorded as “low binding”.

For the compound `CNc1ccc(-c2ccc3cc(OC[C@H](O)C[18F])ccc3n2)cn1` [[^18F] THK-5351], the “accumulation in Alzheimer's disease (AD) frontal lobe sections” value on MAO-B [2] (18F labeled compound 370 kBq/mL, autoradiography) was “high accumulation”. On MAO-B [2] (Lazabemide 10 μM, AD frontal lobe section), the “binding in the presence of MAO-B selective inhibitor Lazabemide” value was “decrease in the binding”. The “specificity of binding (autoradiography conclusion)” value at MAO-B [2] (human brain sections, compared with MAO-B and tau immunostaining) is “binds to both MAO-B and tau”. Further, in data set [3], the defluorination to bone entry is “could not be confirmed”.
